Experimental data published in patent publication US20250362286A1, “SCREENING MODELS AND METHODS OF CANCER TREATMENT” (The Regents of the University of California, priority 2022, published 2025).
Entries after “also recorded” stand apart in the source; their conditions may differ.

How the values were obtained:
MDAs [1] = assay: RT-qPCR of CD24 expression in MDAs, 7 days; type: cell-based; conditions: after 7 days, population level
Description: (§1) To further assess differentiation status, RT-PCR and flow cytometry (FC) was used to quantify expression of the CSC stemness biomarker signature CD44^+/CD24^− in MDAs. At the population level, MDAs increased CD24 mRNA expression ˜14-fold with ISX9 treatment after 7 days (FIG. 3E). FIG. 3E depicts RT-qPCR of CD24 expression in MD As treated with vehicle or ISX9. […] (FIG. 3F, FIG. 3G). FIG. 3F and FIG. 3G depicts flow cytometry analysis of MDAs treated with vehicle or ISX9.

PA-14-13 PDOs = assay: western blot of E-Cadherin and Vimentin in PDOs; type: cell-based; conditions: 6 days
Description: (§2) FIG. 8N depicts a western blot analysis of E-Cadherin and Vimentin in PIM-025 PDOs treated with vehicle or ISX9 for 6 days. FIG. 8O depicts a western blot analysis of E-Cadherin and Vimentin in PA-14-13 PDOs treated with vehicle or ISX9 for 6 days.

PIM-025 PDOs = assay: western blot of E-Cadherin and Vimentin in PDOs; type: cell-based; conditions: 6 days
Description: as §2

PIM025 = assay: western blot of acetylated H3/H4 in PDOs; type: cell-based; conditions: patient-derived organoid model
Description: (§3) Also identified was the fact that a similar increase in acetylation was found in patient-derived organoid models. […] Acetylation and deactylation of histones H3 and H4 are typically orchestrated by Histone Acetyltransferases (HATs), including the several HAT subfamilies, as well as HDACs (see, e.g., Marmorstein, R. et al. Cold Spring Harb. Perspect. Biol. 6, a018762 (2014)). Not wishing to be bound by any particular theory, Isx9 may bind directly to HATs and/or HDACs in order to activate histone acetylation and drive induction of MET and/or CSC differentiation.

PA-14-13 = assay: western blot of acetylated H3/H4 in PDOs; type: cell-based; conditions: patient-derived organoid model
Description: as §3

MDAs [2] = assay: flow cytometry of CDH1+ MDA cells in 2D and 3D Collagen I densities; type: cell-based
Method: To determine whether induction of MET was specific to the HD Collagen I condition or generally applicable to all ISX9-treated cells in a 3D Collagen condition, CDH1^+ cells in 2D, and multiple 3D Collagen I densities were flow-sorted (1 mg/mL, 2.5 mg/mL, and 6 mg/mL Col1) (FIG. 4F, FIG. 4G).) FIG. 4F depicts fluorescence profiles of CDH1 in MDAs treated with vehicle or ISX9 for 7 days in 2D TC, LD Col1, MD Col1, or HD Col1 conditions. FIG. 4G depicts a flow cytometry analysis of CDH1^+ MDA cells treated with vehicle or ISX9 in 2D TC, LD Col1, MD Col1, or HD Col1.

MDA-MB-231 cells = assay: western blot of acetylation of histones H3 and H4; type: cell-based; conditions: 2D- and 3D-treated cells, 24 hours
Description: as §3

MDAs [3] = assay: western blot of EMT markers E-cadherin and Vimentin; type: cell-based
Description: Given the strong phenotypic changes induced by ISX9 in HD Col1 (FIG. 2), this example also assessed the differentiation activity of ISX9 by characterizing Epithelial-to-Mesenchymal (EMT) status using western blot (WB) analysis of E-cadherin and vimentin levels. […] FIG. 3D depicts WB of EMT markers E-cadherin and Vimentin in cancer cell lines treated with vehicle or ISX9.
To understand whether ISX9 treatment could induce Mesenchymal-to-Epithelial Transition (MET), western blotting (WB) was performed for the epithelial marker E-Cadherin (CDH1) and the Mesenchymal marker Vimentin (Vim) on 2D and HD Collagen-treated tumor cells (FIG. 4D). FIG. 4D depicts a western blot analysis of EMT markers E-cadherin and Vimentin in MDAs treated with vehicle or ISX9 for 7 days in 2D TC or HD Col1.

MDAs [4] = assay: flow cytometry of CD44+/CD24- CSC population in MDAs; type: cell-based
Description: as §1
Cells in 2D tissue culture and HD Collagen I were treated with ISX9 daily for 7 days, dissociated and flow-sorted. […] These figures depict fluorescence profiles of CD44/CD24 in MDAs treated with vehicle or ISX9 for 7 days in (FIG. 4A) 2D TC or (FIG. 4B) HD Col1. FIG. 4C depicts a flow cytometry analysis of CD44^+/CD24^− MDA cells treated with vehicle or ISX9.

[5] = once daily 16 mg/kg ip for several weeks, cited from earlier work

O=C(NC1CC1)c1cc(-c2cccs2)on1 [ISX9, Isoxazole 9]
increase of CD24 mRNA expression (MDAs [1]): ~14 fold
Vimentin expression (WB) (PA-14-13 PDOs): no observed differences to Vimentin expression
Vimentin expression (WB) (PIM-025 PDOs): no observed differences to Vimentin expression
acetylated H3/H4 expression (PIM025): slight increase in acetylated H3/H4 expression
acetylated H3/H4 expression (PA-14-13): large increase in acetylated H3/H4 expression
CDH1+ induction (MDAs [2]; 1 mg/mL and 2.5 mg/mL Col1, 7 days): unable to re-express CDH1^+to similar levels
effect on CDH1+ cells (MDAs [2]; 2D, 7 days): small effect
population of CDH1+ cells (MDAs [2]; HD (6 mg/mL) Col1, 7 days): highest population of CDH1^+ cells
acetylation of histones H3 and H4 (MDA-MB-231 cells): significant increase in acetylation of histones H3 and H4
effect on MET markers E-Cadherin and Vimentin (WB) (MDAs [3]; 2D-treated cells, 7 days): no effect on either MET marker
E-cadherin expression (WB) (MDAs [3]; 7 days in HD Col1): increased E-cadherin expression; also recorded: increase in E-Cadherin
Vimentin expression (WB) (MDAs [3]; 7 days in HD Col1): reduced Vimentin expression; also recorded: decrease in Vimentin
population of CD44+/CD24- CSCs (MDAs [4]; 2D and HD Collagen I, treated daily for 7 days): reducing the population of CD44^+/CD24^− CSCs to a similar degree
CD44+/CD24- cells, share of the population (MDAs [4]; with treatment, vehicle ˜100%): ~67%
tolerability (signs or symptoms) ([5]; 16 mg/kg): well-tolerated; also recorded: no signs or symptoms of lethargy, weight loss or decreased appetite
serum biochemistry and hematology profiles [5]: normal
